Results on 18 compounds are retold here after patent publication US8980934B2, “Kinase inhibitors and method of treating cancer with same” (University Health Network, priority 2012, dated 2015).

Where only a bound is given, the exact number is not on record here.

What all share (assay): Cancer cell growth inhibition, Sulforhodamine B assay
Type in all cases: cell-based
A general note: In SRB staining, fixed cells bind dye roughly in proportion to their protein.

The test system of test [1] is HCT116 colon cancer cells. The settings on record: Homo sapiens, HCT-116, 120 h; HCT116, 5 days culture, SRB; read-out: Cancer Cell Line GI50 Range HCT116. The method, then: (§1) Breast cancer cells (MDA-MB-231), colon cancer cells (HCT116) and ovarian cancer cells (PA-1) were seeded (1000 to 4000 in 80 μl per well depending on the cell growth rate) into 96 well plates 24 hours before compound overlay. Compounds were prepared as 10 mM stock solutions in 100% DMSO which were diluted with DMEM (Dulbecco's Modified Eagle's Medium) cell growth Medium (Invitrogen, Burlington, ON, Canada) containing 10% FBS (Fetal Bovine Serum) to concentrations ranging from 50 nM to 250 μM. Aliquots (20 μl) from each concentration were overlaid to 80 μl of the pre-seeded cells in the 96 well plates to make final concentrations of 10 nM to 50 μM. The cells were cultured for 5 days before the Sulforhodamine B assay (SRB) was performed to determine the compound's cell growth inhibition activity.
(§2) Sulforhodamine B (purchased from Sigma, Oakville, ON, Canada) is a water-soluble dye that binds to the basic amino acids of the cellular proteins. Thus, colorimetric measurement of the bound dye provides an estimate of the total protein mass that is related to the cell number. the cells are fixed in situ by gently aspirating off the culture media and adding 50 μl ice cold 10% Trichloroacetic Acid (TCA) per well and incubate at 4° C. for 30-60 min. The plates are washed with H2O five times and allowed to air dry for 5 min. Addition of 50 μl 0.4% (w/v) SRB solution in 1% (v/v) acetic acid to each well and incubatation for 30 min at RT completes the staining reaction. Following staining, plates are washed four times with 1% acetic acid to remove unbound dye and then allowed to air dry for 5 min. The stain is solubilized with 100 μl of 10 mM Tris pH 10.5 per well. Absorbance is read at 570 nm.
(§3) The percentage (%) of relative growth inhibition was calculated by comparing to DMSO treated only cells (100%). GI50's were determined for compounds with cytotoxic activity. The GI50 was calculated using GraphPad PRISM software (GraphPad Software, Inc., San Diego, Calif., USA). GI50 (growth inhibition) is the compound concentration that causes 50% inhibition of cell growth.
(§4) In Table 1 below, GI50 value ranges for several compound examples against breast cancer cell lines (MDA-MB-231), colon cancer cell lines (HCT116) and ovarian cancer cell lines (PA-1) are given. […] The GI50 ranges are indicated as “A,” “B,” and “C,” for values less than or equal to 0.1 μM; those greater than 0.1 μM and less than or equal to 0.5 μM; and those greater than 0.5 μM, respectively.

In test [2] the test system is MDA-MB-231 breast cancer cells. The settings on record: Homo sapiens, 120 h; MDA-MB-231, 5 days culture, SRB; read-out: Cancer Cell Line GI50 Range MDA-MB-231. The method, then: as §1, §2, §3, §4
Test [3] concerns PA-1 ovarian cancer cells. The following applies: 120 h; PA-1, 5 days culture, SRB; read-out: Cancer Cell Line GI50 Range PA-1. The method, then:
as §1, §2, §3, §4

In the case of `O=C(N[C@@H](c1ccsc1)C1CCCC1)c1ccc2[nH]nc(-c3ccc(N4CC5(COC5)C4)cc3)c2c1` [Example A9, 3-(4-(2-Oxa-6-azaspiro[3.3]heptan-6-yl)phenyl)-N-((R)-cyclopentyl(thiophen-3-yl)methyl)-1H-indazole-5-carboxamide], the results for the GI50 in test [1], in test [2] and in test [3] were 0.1 to 0.5 µM, above 0.5 µM and 0.1 to 0.5 µM, respectively.
In the case of `CC(C)[C@@H](NC(=O)c1ccc2[nH]nc(-c3ccc(N4CC5(COC5)C4)cc3)c2c1)c1ccccc1Cl` [Example A13, 3-(4-(2-Oxa-6-azaspiro[3.3]heptan-6-yl)phenyl)-N-((R)-1-(2-chlorophenyl)-2-methylpropyl)-1H-indazole-5-carboxamide], the GI50 is at most 0.1 µM in test [1], 0.1 to 0.5 µM in test [2] and at most 0.1 µM in test [3].
Regarding `O=C(NC(c1nccs1)C1CC1)c1ccc2[nH]nc(-c3ccc(N4CC5(COC5)C4)cc3)c2c1` (stereo not drawn) [Example A14, 3-(4-(2-Oxa-6-azaspiro[3.3]heptan-6-yl)phenyl)-N-(cyclopropyl(thiazol-2-yl)methyl)-1H-indazole-5-carboxamide], the GI50 in test [1], in test [2] and in test [3] was at most 0.1 µM throughout.
Consider `O=C(NC(c1ccccn1)C1CC1)c1ccc2[nH]nc(-c3ccc(N4CCC5(COC5)C4)cc3)c2c1` (stereo not drawn) [Example A16, 3-(4-(2-Oxa-6-azaspiro[3.4]octan-6-yl)phenyl)-N-(cyclopropyl(pyridin-2-yl)methyl)-1H-indazole-5-carboxamide], for which the GI50 in test [1], in test [2] and in test [3] was 0.1 to 0.5 µM throughout.
Turning to `O=C(N[C@H](c1ccccc1)C1CC1)c1ccc2[nH]nc(-c3ccc(N4CC5(CCOCC5)C4)cc3)c2c1` [Example A17, (S)-3-(4-(7-Oxa-2-azaspiro[3.5]nonan-2-yl)phenyl)-N-(cyclopropyl(phenyl)methyl)-1H-indazole-5-carboxamide], the GI50 in test [1], in test [2] and in test [3] was 0.1 to 0.5 µM throughout.
Regarding `O=C(N[C@H](c1ccccn1)C1CC1)c1ccc2[nH]nc(-c3ccc(N4CC5(CCO5)C4)cc3)c2c1` [Example A21, (S)-3-(4-(1-Oxa-6-azaspiro[3.3]heptan-6-yl)phenyl)-N-(cyclopropyl(pyridin-2-yl)methyl)-1H-indazole-5-carboxamide], the GI50 in test [1], in test [2] and in test [3] was at most 0.1 µM each time.
Take `O=C(N[C@@H](c1ccccn1)C1CC1)c1ccc2[nH]nc(-c3ccc(N4CC5(CCO5)C4)cc3)c2c1` [Example A22, (R)-3-(4-(1-Oxa-6-azaspiro[3.3]heptan-6-yl)phenyl)-N-(cyclopropyl(pyridin-2-yl)methyl)-1H-indazole-5-carboxamide]: the GI50 in test [1], in test [2] and in test [3] was at most 0.1 µM throughout.
As for `O=C(N[C@H](c1ncccn1)C1CCCC1)c1ccc2[nH]nc(-c3ccc(N4CC5(COC5)C4)cc3)c2c1` [Example A25, (S)-3-(4-(2-oxa-6-azaspiro[3.3]heptan-6-yl)phenyl)-N-(cyclopentyl(pyrimidin-2-yl)methyl)-1H-indazole-5-carboxamide], the GI50 in test [1], in test [2] and in test [3] was at most 0.1 µM throughout.
Turning to `O=C(N[C@@H](c1ncccn1)C1CCCC1)c1ccc2[nH]nc(-c3ccc(N4CC5(COC5)C4)cc3)c2c1` [Example A26, (R)-3-(4-(2-oxa-6-azaspiro[3.3]heptan-6-yl)phenyl)-N-(cyclopentyl(pyrimidin-2-yl)methyl)-1H-indazole-5-carboxamide], the GI50 in test [1], in test [2] and in test [3] was at most 0.1 µM throughout.
On to `CC(C)C[C@H](NC(=O)c1ccc2[nH]nc(-c3ccc(N4CC5(COC5)C4)cc3)c2c1)c1ccccn1` [Example A27, (S)-3-(4-(2-oxa-6-azaspiro[3.3]heptan-6-yl)phenyl)-N-(3-methyl-1-(pyridin-2-yl)butyl)-1H-indazole-5-carboxamide], for which the GI50 in test [1], in test [2] and in test [3] was at most 0.1 µM throughout.
As for `CC(C)[C@H](NC(=O)c1ccc2[nH]nc(-c3ccc(N4CC5(CN(C)C5)C4)cc3)c2c1)c1ccccc1Cl` [Example A28, (S)-N-(1-(2-Chlorophenyl)-2-methylpropyl)-3-(4-(6-methyl-2,6-diazaspiro[3.3]heptan-2-yl)phenyl)-1H-indazole-5-carboxamide], the GI50 in test [1], in test [2] and in test [3] was at most 0.1 µM each time.
On to `CN1CC2(C1)CN(c1ccc(-c3n[nH]c4ccc(C(=O)N[C@H](c5ccccc5)C5CC5)cc34)cc1)C2` [Example A29, (S)-N-(Cyclopropyl(phenyl)methyl)-3-(4-(6-methyl-2,6-diazaspiro[3.3]heptan-2-yl)phenyl)-1H-indazole-5-carboxamide], for which the GI50 in test [1], in test [2] and in test [3] was at most 0.1 µM each time.
Turning to `CC(C)[C@H](NC(=O)c1ccc2[nH]nc(-c3ccc(N4CC5(C4)CN(C4COC4)C5)cc3)c2c1)c1ccccc1Cl` [Example A30, (S)-N-(1-(2-Chlorophenyl)-2-methylpropyl)-3-(4-(6-(oxetan-3-yl)-2,6-diazaspiro[3.3]heptan-2-yl)phenyl)-1H-indazole-5-carboxamide], the GI50 in test [1], in test [2] and in test [3] was at most 0.1 µM throughout.
Regarding `O=C(N[C@H](c1ccccn1)C1CCCC1)c1ccc2[nH]nc(-c3ccc(N4CC5(C4)CN(C4COC4)C5)cc3)c2c1` [Example A31, (S)-N-(Cyclopentyl(pyridin-2-yl)methyl)-3-(4-(6-(oxetan-3-yl)-2,6-diazaspiro[3.3]heptan-2-yl)phenyl)-1H-indazole-5-carboxamide], the GI50 in test [1], in test [2] and in test [3] was at most 0.1 µM each time.
As for `O=C(N[C@H](c1ccccn1)C1CCCC1)c1ccc2[nH]nc(-c3ccc(N4CC5(CC(O)C5)C4)cc3)c2c1` [Example A33, (S)-N-(Cyclopentyl(pyridin-2-yl)methyl)-3-(4-(6-hydroxy-2-azaspiro[3.3]heptan-2-yl)phenyl)-1H-indazole-5-carboxamide], the GI50 in test [1], in test [2] and in test [3] was at most 0.1 µM throughout.
Turning to `O=C(N[C@H](c1ccccn1)C1CCCC1)c1ccc2[nH]nc(-c3ccc(N4CCC45COC5)cc3)c2c1` [Example A34, (S)-3-(4-(6-Oxa-1-azaspiro[3.3]heptan-1-yl)phenyl)-N-(cyclopentyl(pyridin-2-yl)methyl)-1H-indazole-5-carboxamide], the GI50 in test [1], in test [2] and in test [3] was 0.1 to 0.5 µM each time.
As to `CC(C)C[C@H](NC(=O)c1ccc2[nH]nc(-c3ccc(N4CCC45COC5)cc3)c2c1)c1ccccn1` [Example A35, (S)-3-(4-(6-Oxa-1-azaspiro[3.3]heptan-1-yl)phenyl)-N-(3-methyl-1-(pyridin-2-yl)butyl)-1H-indazole-5-carboxamide], the GI50 in test [1], in test [2] and in test [3] was 0.1 to 0.5 µM each time.
In the case of `O=C(N[C@@H](c1ncccn1)C1CCCC1)c1ccc2[nH]nc(-c3ccc(N4CCC45COC5)cc3)c2c1` [Example A37, (R)-3-(4-(6-oxa-1-azaspiro[3.3]heptan-1-yl)phenyl)-N-(cyclopentyl(pyrimidin-2-yl)methyl)-1H-indazole-5-carboxamide], the GI50 in test [1], in test [2] and in test [3] was at most 0.1 µM in each case.

A word on the GI50: it is the concentration at which growth is held to half of that of the control.
